Assay results taken from article PMC11562494 (BMC Chemistry, 2024).
Converted amounts (≈) assume the structure as drawn. “And” between values parts separate entries of the source, which are not always exact repeats. Identical values can stand only once. Like-named read-outs stand apart in the source and are kept apart here.

Experiments:
C. albicans [1] = assay: Broth dilution MIC/MFC; assay type: cell-based, Candida albicans; conditions: for MFC / MIC: Candida albicans; for MFC: read-out: MFC C. albicans; for MIC: read-out: MIC C. albicans, broth dilution; for MIC C. albicans: broth dilution
E. coli [2] = assay: Broth dilution MIC/MBC; assay type: cell-based, Escherichia coli; conditions: for MBC / MIC: Escherichia coli; for MBC: read-out: MBC E. coli; for MIC: read-out: MIC E. coli
E. cloacae = assay: Broth dilution MIC/MBC; assay type: cell-based, Enterobacter cloacae; conditions: for MBC / MIC: Enterobacter cloacae; for MBC: read-out: MBC E. cloacae; for MIC: read-out: MIC E. cloacae
S. faecalis = assay: Broth dilution MIC/MBC; assay type: cell-based, Streptococcus faecalis; conditions: for MBC / MIC: Enterococcus faecalis; for MBC: read-out: MBC S. faecalis; for MIC: read-out: MIC S. faecalis
B. pumilus = assay: Broth dilution MIC/MBC; assay type: cell-based, Bacillus pumilus; conditions: for MBC / MIC: Bacillus pumilus; for MBC: read-out: MBC B. pumilus; for MIC: read-out: MIC B. pumilus
S. cerevisiae = assay: Broth dilution MIC/MFC; assay type: cell-based, Saccharomyces cerevisiae; conditions: for MFC / MIC: Saccharomyces cerevisiae; for MFC: read-out: MFC S. cerevisiae; for MIC: read-out: MIC S. cerevisiae
WI38 cells = assay: In vitro cytotoxicity MTT assay; conditions: Homo sapiens, WI-38, 48 h, read-out: WI-38 IC50 ± SD
DNA gyrase A = DNA gyrase A (Escherichia coli, UniProt P0AES4); assay: DNA gyrase supercoiling assay; assay type: biochemical; conditions: IC50 ± SD DNA gyrase A, E. coli DNA gyrase supercoiling
E. coli [3] = assay: Time-kill kinetic test; assay type: cell-based; conditions: 1x MIC
C. albicans [4] = conditions: cited from earlier work
Escherichia coli = conditions: cited from earlier work

DNA gyrase A, sequence (P0AES4 whole entry): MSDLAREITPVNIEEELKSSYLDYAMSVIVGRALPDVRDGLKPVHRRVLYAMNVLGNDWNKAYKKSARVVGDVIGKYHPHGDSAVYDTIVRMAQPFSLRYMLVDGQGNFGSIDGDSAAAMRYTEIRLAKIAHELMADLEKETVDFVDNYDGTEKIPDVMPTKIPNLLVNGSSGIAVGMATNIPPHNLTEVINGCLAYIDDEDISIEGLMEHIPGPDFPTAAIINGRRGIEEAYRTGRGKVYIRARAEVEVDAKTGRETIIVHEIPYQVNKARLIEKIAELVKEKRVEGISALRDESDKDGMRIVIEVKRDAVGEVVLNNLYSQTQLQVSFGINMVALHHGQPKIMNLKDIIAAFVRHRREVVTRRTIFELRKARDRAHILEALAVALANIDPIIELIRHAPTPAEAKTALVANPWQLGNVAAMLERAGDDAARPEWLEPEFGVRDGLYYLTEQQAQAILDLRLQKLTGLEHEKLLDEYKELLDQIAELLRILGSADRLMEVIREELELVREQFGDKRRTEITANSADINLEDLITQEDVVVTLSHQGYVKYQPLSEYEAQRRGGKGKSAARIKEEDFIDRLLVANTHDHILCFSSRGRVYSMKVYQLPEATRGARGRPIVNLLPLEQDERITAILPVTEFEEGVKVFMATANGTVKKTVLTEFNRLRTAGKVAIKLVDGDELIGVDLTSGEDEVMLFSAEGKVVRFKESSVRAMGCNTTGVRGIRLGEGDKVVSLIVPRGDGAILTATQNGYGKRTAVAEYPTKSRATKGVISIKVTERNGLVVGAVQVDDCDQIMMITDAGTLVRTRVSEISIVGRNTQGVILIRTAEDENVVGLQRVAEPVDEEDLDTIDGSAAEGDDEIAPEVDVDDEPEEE

Compound	MFC/ MIC ratio C. albicans (C. albicans [1])	MFC (C. albicans [1]) [µg/mL]	MIC (C. albicans [1]) [µg/mL]	MBC/ MIC ratio E. coli (E. coli [2])	MBC (E. coli [2]) [µg/mL]	MIC (E. coli [2]) [µg/mL]	MBC/ MIC ratio E. cloacae (E. cloacae)	MBC (E. cloacae) [µg/mL]	MIC (E. cloacae) [µg/mL]	MBC/ MIC ratio S. faecalis (S. faecalis)	MBC (S. faecalis) [µg/mL]	MIC (S. faecalis) [µg/mL]	MBC/ MIC ratio B. pumilus (B. pumilus)	MBC (B. pumilus) [µg/mL]	MIC (B. pumilus) [µg/mL]	MFC/ MIC ratio S. cerevisiae (S. cerevisiae)	MFC (S. cerevisiae) [µg/mL]	MIC (S. cerevisiae) [µg/mL]	further results
N#Cc1c(-c2ccc(OCc3ccccc3)cc2)c(C(N)=S)c(N)n(N)c1=O [Compound 4d, 1,2-diamino-4-(4-(benzyloxy)phenyl)-5-cyano-6-oxo-1,6-dihydropyridine-3-carbothioamide]	2	125 (≈ 319 µM)	31.3 (≈ 80 µM)	4	31.3 (≈ 80 µM)	7.81 (≈ 20 µM)	2	125 (≈ 319 µM)	62.5 (≈ 160 µM)	2	62.5 (≈ 160 µM)	31.3 (≈ 80 µM)	4	31.3 (≈ 80 µM)	7.81 (≈ 20 µM)	2	62.5 (≈ 160 µM)	31.3 (≈ 80 µM)	MIC C. albicans (C. albicans [1]): 62.5 µg/mL (≈ 160 µM)
N#Cc1c(-c2ccc(OCc3ccccc3)cc2)c(C(N)=O)c(N)n(N)c1=O [Compound 3d, 1,2-diamino-4-(4-(benzyloxy)phenyl)-5-cyano-6-oxo-1,6-dihydropyridine-3-carboxamide]	4	500 (≈ 1330 µM)	–	4	15.6 (≈ 41.6 µM)	3.91 (≈ 10.4 µM)	4	31.3 (≈ 83.4 µM)	7.81 (≈ 20.8 µM)	4	62.5 (≈ 166 µM)	15.6 (≈ 41.6 µM)	4	62.5 (≈ 166 µM)	15.6 (≈ 41.6 µM)	2	62.5 (≈ 166 µM)	31.3 (≈ 83.4 µM)	IC50 (WI38 cells): 48.8 ± 2.07 µM; IC50 (DNA gyrase A): 4.48 µM and 4.49 µM; Time to bactericidal activity against E. coli (E. coli [3]): 90 to 120 min and 90 min
N#Cc1c(-c2ccc(Cl)cc2Cl)c(C(N)=S)c(N)n(N)c1=O [Compound 4b, 1,2-diamino-5-cyano-4-(2,4-dichlorophenyl)-6-oxo-1,6-dihydropyridine-3-carbothioamide]	–	62.5 (≈ 176 µM)	31.3 (≈ 88.4 µM)	–	62.5 (≈ 176 µM)	7.81 (≈ 22 µM)	–	125 (≈ 353 µM)	31.3 (≈ 88.4 µM)	–	125 (≈ 353 µM)	31.3 (≈ 88.4 µM)	2	62.5 (≈ 176 µM)	31.3 (≈ 88.4 µM)	4	500 (≈ 1410 µM)	125 (≈ 353 µM)	–
Cc1c(C(N)=O)c(N)n(N)c(=O)c1C#N [Compound 3a, 1,2-diamino-5-cyano-4-methyl-6-oxo-1,6-dihydropyridine-3-carboxamide]	4	500 (≈ 2410 µM)	–	4	62.5 (≈ 302 µM)	15.6 (≈ 75.3 µM)	8	31.3 (≈ 151 µM)	3.91 (≈ 18.9 µM)	4	31.3 (≈ 151 µM)	7.81 (≈ 37.7 µM)	4	125 (≈ 603 µM)	31.3 (≈ 151 µM)	4	125 (≈ 603 µM)	31.3 (≈ 151 µM)	–
N#Cc1c(-c2ccc(Cl)cc2Cl)c(C(N)=O)c(N)n(N)c1=O [Compound 3b, 1,2-diamino-5-cyano-4-(2,4-dichlorophenyl)-6-oxo-1,6-dihydropyridine-3-carboxamide]	2	125 (≈ 370 µM)	62.5 (≈ 185 µM)	4	31.3 (≈ 92.6 µM)	7.81 (≈ 23.1 µM)	4	125 (≈ 370 µM)	31.3 (≈ 92.6 µM)	2	62.5 (≈ 185 µM)	31.3 (≈ 92.6 µM)	2	31.3 (≈ 92.6 µM)	15.6 (≈ 46.1 µM)	2	250 (≈ 739 µM)	125 (≈ 370 µM)	–
C[C@@H]1[C@H](O)[C@@H](C)/C=C/C=C/CC/C=C/C=C/C=C/C=C/C(O[C@H]2O[C@H](C)[C@@H](O)[C@H](N)[C@@H]2O)CC2O[C@](O)(CC(O)C(O)CCC(O)CC(O)CC(O)CC(=O)O[C@H]1C)CC(O)C2C(=O)O (some centres unmarked) [nystatin]	–	–	–	–	–	–	–	–	–	–	–	–	–	–	–	–	–	–	MIC C. albicans (C. albicans [4]): 1.95 µg/mL (≈ 2.11 µM)
CN(C)c1ccc(-c2c(C(N)=S)c(N)n(N)c(=O)c2C#N)cc1 [Compound 4c, 1,2-diamino-5-cyano-4-(4-(dimethylamino)phenyl)-6-oxo-1,6-dihydropyridine-3-carbothioamide]	4	62.5 (≈ 190 µM)	15.6 (≈ 47.5 µM)	4	125 (≈ 381 µM)	31.3 (≈ 95.3 µM)	4	250 (≈ 761 µM)	62.5 (≈ 190 µM)	4	31.3 (≈ 95.3 µM)	7.81 (≈ 23.8 µM)	2	125 (≈ 381 µM)	62.5 (≈ 190 µM)	2	125 (≈ 381 µM)	62.5 (≈ 190 µM)	–
CC1(C)S[C@@H]2[C@H](NC(=O)Cc3ccccc3)C(=O)N2[C@H]1C(=O)O [Pen. G, Penicillin G, reference compound]	–	–	–	–	–	–	–	–	–	2	62.5 (≈ 187 µM)	31.5 (≈ 94.2 µM)	2	125 (≈ 374 µM)	62.5 (≈ 187 µM)	–	–	–	–
gentamycin [reference compound]	–	–	–	–	–	–	–	–	–	–	–	–	–	–	–	–	–	–	Time to bactericidal activity against E. coli (E. coli [3]): 90 to 120 min and 120 min
Cc1c(C(N)=S)c(N)n(N)c(=O)c1C#N [Compound 4a, 1,2-diamino-5-cyano-4-methyl-6-oxo-1,6-dihydropyridine-3-carbothioamide]	–	62.5 (≈ 280 µM)	31.3 (≈ 140 µM)	2	31.3 (≈ 140 µM)	15.6 (≈ 69.9 µM)	2	125 (≈ 560 µM)	62.5 (≈ 280 µM)	4	62.5 (≈ 280 µM)	15.6 (≈ 69.9 µM)	2	125 (≈ 560 µM)	62.5 (≈ 280 µM)	8	500 (≈ 2240 µM)	62.5 (≈ 280 µM)	–
CC1COc2c(N3CCN(C)CC3)c(F)cc3c(=O)c(C(=O)O)cn1c23 (centres unmarked) [ofloxacin]	–	–	–	–	–	–	–	–	–	–	–	–	–	–	–	–	–	–	IZ E. coli (Escherichia coli): 24 mm
CN(C)c1ccc(-c2c(C(N)=O)c(N)n(N)c(=O)c2C#N)cc1 [Compound 3c, 1,2-diamino-5-cyano-4-(4-(dimethylamino)phenyl)-6-oxo-1,6-dihydropyridine-3-carboxamide]	2	125 (≈ 400 µM)	31.3 (≈ 100 µM)	4	62.5 (≈ 200 µM)	15.6 (≈ 49.9 µM)	2	125 (≈ 400 µM)	62.5 (≈ 200 µM)	2	125 (≈ 400 µM)	62.5 (≈ 200 µM)	4	62.5 (≈ 200 µM)	15.6 (≈ 49.9 µM)	4	125 (≈ 400 µM)	31.3 (≈ 100 µM)	MIC C. albicans (C. albicans [1]): 62.5 µg/mL (≈ 200 µM)
CC(=O)N1CCN(c2ccc(OCC3COC(Cn4ccnc4)(c4ccc(Cl)cc4Cl)O3)cc2)CC1 (centres unmarked) [Keto., Ketoconazole, reference compound]	–	31.3 (≈ 58.9 µM)	1.95 (≈ 3.67 µM)	–	–	–	–	–	–	–	–	–	–	–	–	–	15.6 (≈ 29.4 µM)	1.95 (≈ 3.67 µM)	–
